According to article PMC9503009, “Determining Ligand and Ion-Induced Conformational Changes in Serotonin Transporter with Its Fluorescent Substrates” (International Journal of Molecular Sciences, 2022):
Where two headings read alike, the source gives them in different places. One block for each molecule: values may come before it.

Tests used:
Format in all cases: cell-based
SERT Y107C/C109A [1] = target: T1, SERT Y107C/C109A (Rattus norvegicus, UniProt P31652, C109A/Y107C); assay: MTSET inhibition of APP+ uptake in live cells (extracellular pathway cysteine accessibility)
T1 construct: expressed in transfected cells
Description: (§1) Figure 3 Reactivity of the extracellular cysteine mutants with MTSET. (A) MTSET concentration-dependent inhibition of APP^+ uptake. The cells stably expressing C109A, Y107C/C109C, or S404C/C109A were incubated for 15 min with indicated concentrations of MTSET. The MTSET concentration giving half-maximal inhibition of APP^+ accumulation in the cells was used to calculate inactivation rate constants as plotted in (B). […] Representative images of APP^+ uptake by C109A, Y107C/C109A, or S404C/C109A under various MTSET concentrations were shown in Supplemental Figure S1. […] (B) Rate constants of MTSET inhibition of APP^+ uptake. At the half-maximal concentration, the half-time is the assay time (15 min) and the first-order rate constant is 7.7 × 10^−4 s^−1. This rate constant was divided by the half maximal MTSET concentration from (A) to obtain the pseudo first-order modification rate constant. Error bars represent SEM of three experiments.
(A) MTSET concentration-dependent inhibition of APP^+ uptake. […] After washing to remove excess MTSET and ligands, APP^+ uptake was measured as described under “Materials and Methods”. […] (B) Rate constants of MTSET inhibition of APP^+ uptake. The IC50 values of MTSET inhibition were used to calculate rate constants as described under “Materials and Methods”. Error bars represent SEM from three experiments.
(§2) The cells stably expressing Y107C/C109A or S404C/C109A were preincubated with indicated ligands and MTSET at a concentration of 0.01 mM for Y107C/C109A or 0.002 mM for S404C/C109A at 22 °C for 15 min, respectively. At the end of this incubation, cells were washed free of MTSET and ligands into KRH buffer containing NaCl and APP^+. APP^+ uptake was measured as described under “Materials and Methods”. Error bars represent SEM from three experiments. Asterisks and hashtags indicate statistically significant changes (p < 0.05) in the accumulated APP^+ fluorescence compared with the corresponding control (MTSET alone).
The cells stably expressing Y107C/C109A were treated at 22 °C for 15 min with indicated concentrations of MTSET in the absence or presence of 10 μM vilazodone. After washing to remove excess MTSET and vilazodone, APP^+ uptake was measured as described under “Materials and Methods”. […] The IC50 values of MTSET inhibition were used to calculate rate constants as described under “Materials and Method”. Error bars represent SEM from three experiments. […] After washing to remove excess MTSEA and vilazodone, ASP^+ binding was measured as described under “Materials and Methods”. […] The IC50 values of MTSEA inhibition of ASP^+ binding were converted to rate constants.

SERT S404C/C109A [2] = target: T2, SERT S404C/C109A (Rattus norvegicus, UniProt P31652, C109A/S404C); assay: as above
T2 construct: expressed in transfected cells
Description: as §1, §2
Accessibility of the cysteine residues in the extracellular pathway was measured by reactivity of Y107C/C109A and S404C/C109A mutants with MTSET. The cells stably expressing Y107C/C109A or S404C/C109A were incubated with MTSET over a range of concentrations in HEPES buffer containing indicated ligands or ions at 22 °C for 15 min. After excess MTSET and ligands were removed by rapid 3 × washing with the same buffer, the cells were then incubated with APP^+ at a final concentration of 2 μM in KRH buffer at 22 °C for another 5 min. The extent of APP^+ accumulated in the cells was determined by confocal imaging analysis in the live cells. To measure the effects of antidepressants, substrate 5-HT, or other ligands such as 5-HTP or tryptophan, where added, was present at 10 μM. To measure the effects of ions, 150 mM […] (NMDG) gluconate, and NMDG chloride, sodium isethionate, or NaCl was used as indicated. These measurements of reactivity depend on the ability of MTSET to inactivate APP^+ transport activity by an allosteric mechanism. The MTSET concentration causing half-maximal inactivation was determined and used to calculate the rate constant for cysteine modification, as described previously.

SERT S277C/X5C [3] = target: T3, SERT S277C/X5C (Rattus norvegicus, UniProt P31652, C109A/C15A/C21A/C357I/C622A/S277C); assay: MTS reagent inhibition of ASP+ binding in digitonin-permeabilized cells (cytoplasmic pathway cysteine accessibility)
T3 construct: expressed in transfected cells
Description: After 3 × rapid washing with KRH buffer, APP^+ or ASP^+ accumulation was measured as described under “Materials and Methods”. […] These representative images were parallelly acquired from one experiment. […] After 3 × washing, ASP^+ binding to the cell membrane was measured as described under “Materials and Methods”. […] (D) The effects of MTSET on ASP^+ binding of S277C/X5C and X5C. […] After 3 × rapid washing, ASP^+ binding was measured as described under “Materials and Methods”.
After washing to remove excess MTSEA and ligands, ASP^+ binding was measured as described under “Materials and Methods”. […] The IC50 values of MTSEA inhibition of ASP^+ binding were converted to rate constants.
The cells stably expressing Y107C/C109A were treated at 22 °C for 15 min with indicated concentrations of MTSET in the absence or presence of 10 μM vilazodone. After washing to remove excess MTSET and vilazodone, APP^+ uptake was measured as described under “Materials and Methods”. […] The IC50 values of MTSET inhibition were used to calculate rate constants as described under “Materials and Method”. Error bars represent SEM from three experiments. […] After washing to remove excess MTSEA and vilazodone, ASP^+ binding was measured as described under “Materials and Methods”. […] The IC50 values of MTSEA inhibition of ASP^+ binding were converted to rate constants. […]
For cytoplasmic pathway accessibility, measurements were performed with the cells stably expressing S277C/X5C. […] The cells, then, were washed free of unreacted MTSEA and ligands, ASP^+ binding was measured by adding 500 μL KRH buffer containing 10 μM ASP^+ and incubating at 22 °C for 5 min. Excess ASP^+ was removed by 3 × rapid washing with KRH buffer and ASP^+ fluorescence retained in the cell membrane was measured by confocal imaging analysis in the permeabilized cells. […] The MTSEA IC50 value was determined and used to calculate the rate constant for S277C/X5C modification.

SERT S277C/X5C [4] = target: T3, SERT S277C/X5C; assay: Kinetic analysis of APP+ or ASP+ uptake by fluorescence imaging in stably expressing cells; details: for Km / Vmax: uptake by cells stably expressing S277C/X5C, 22 °C, 5 min
SERT S404C/C109A [5] = target: T2, SERT S404C/C109A; assay: as above; details: for Km / Vmax: uptake by cells stably expressing S404C/C109A, 22 °C, 5 min
SERT Y107C/C109A [6] = target: T1, SERT Y107C/C109A; assay: as above; details: 22 °C, 5 min
WT-SERT = target: T4, WT-SERT (Rattus norvegicus, UniProt P31652); assay: as above; details: 22 °C, 5 min, mean ± SEM of three experiments
T4 construct: expressed in transfected cells
Description: Figure 1 Kinetic analysis and ion requirements for APP^+ or ASP^+ uptake by SERT. (A) Kinetic analysis for APP^+ or ASP^+ uptake by SERT. […] After washing to remove excess APP^+ or ASP^+, the accumulated fluorescence within the cells (n ≥ 30) were counted and normalized to the cell areas, as described under “Materials and Methods”. […] (B) Ion-dependence of APP^+ or ASP^+ uptake. APP^+ or ASP^+ uptake was measured by incubating the cells stably expressing WT- SERT with APP^+ at 2 μM or ASP^+ at 10 μM in HEPES buffer containing 150 mM NMDGCl, sodium isethionate, or NaCl, respectively. Error bars represent SEM of three experiments.
The cells stably expressing SERT-WT or mutants were wet mounted on polylysine-coated glass slides and applied for indicated treatments. In brief, the cells were washed twice with 500 μL KRH buffer containing 20 mM HEPES, pH 7.4, 120 mM NaCl, 1.3 mM KCl, 2.2 mM CaCl2, 1.2 mM MgSO4, and 0.1% (w/v) glucose. APP^+ or ASP^+ accumulation was measured by adding 500 μL KRH buffer containing 2 μM APP^+ or 10 μM ASP^+ and incubating for 5 min at 22 °C. Excess APP^+ or ASP^+ was then removed by rapid washing three times with 500 μL KRH buffer. The extent of APP^+ or ASP^+ accumulated in the cells was determined with confocal imaging analysis.
Images were acquired at 22 °C using a 20 or 60 × water immersion objective with the Zeiss LSM 900 confocal microscope. APP^+ and ASP^+ were excited by an argon laser with excitation peak at 488 nm. APP^+ fluorescence was captured at 490–565 nm and ASP^+ fluorescence at 600–650 nm. Images were analyzed using National Institutes of Health ImageJ v1.53q. Fluorescence intensity in each cell was counted and normalized to the cell area (mean fluorescence). To obtain ASP^+ binding on the cell surface, intracellular ASP^+ fluorescence intensity was subtracted from total fluorescence in each cell, and the resulting ASP^+ fluorescence on the cell surface was then normalized to the cell membrane area.

[7] = Y107C/C109A, MTSET 0.01 mM, ligand 10 μM, 22 °C, 15 min
[8] = S404C/C109A, MTSET 0.002 mM, ligand 10 μM, 22 °C, 15 min

Structure (SMILES): NCCc1c[nH]c2ccc(O)cc12 [5-HT, 5-hydroxytrypatamine]
decrease of MTSET rate constant compared with control (SERT Y107C/C109A [1]; Y107C/C109A, 10 μM ligand with Na+ and Cl−, control MTSET alone): ~2 folds
effect of ligand on reactivity with MTSET (SERT Y107C/C109A [1]; [7]): significantly decreased the reactivity
effect of ligand on reactivity with MTSET (SERT S404C/C109A [2]; [8]): significantly decreased the reactivity
increase of rate constant of MTSEA modification compared with control (SERT S277C/X5C [3]; S277C/X5C, 10 μM ligand in the presence of NaCl, 25 μg/mL digitonin): ~ 2 folds

effect of ligand on reactivity with MTSET (SERT Y107C/C109A [1]): little effect on the reactivity
effect of ligand on reactivity with MTSET (SERT S404C/C109A [2]): little effect on the reactivity
Structure (SMILES): N[C@@H](Cc1c[nH]c2ccc(O)cc12)C(=O)O [5-HTP, 5-hydroxytryptophan]

Structure (SMILES): CN(C)c1ccc(-c2cc[n+](C)cc2)cc1 [APP^+, 4-[4-(dimethylamino)phenyl]-1-methylpyridinium]
Km (SERT S277C/X5C [4]): 1.99 ± 0.05 µM
Vmax (SERT S277C/X5C [4]): 26.5 ± 1.1 AFU
Km (SERT S404C/C109A [5]): 2.07 ± 0.04 µM
Vmax (SERT S404C/C109A [5]): 34.9 ± 1.2 AFU
Km (SERT Y107C/C109A [6]): 2.39 ± 0.04 µM
Vmax (SERT Y107C/C109A [6]): 39.4 ± 1.8 AFU
Km (WT-SERT): 2.63 ± 0.06 µM
Vmax (WT-SERT): 30.5 ± 1.4 AFU

Structure (SMILES): CN(C)c1ccc(C=Cc2cc[n+](C)cc2)cc1 [ASP^+, 4-(4-(dimethylamino)styryl)-N-methylpyridinium]
Vmax value relative to the WT (SERT S277C/X5C [4]; S277C/X5C, ASP+ as substrate): ~50%
Km (SERT S277C/X5C [4]): 9.66 ± 0.94 µM
Vmax (SERT S277C/X5C [4]): 40.2 ± 3.0 AFU
Vmax value relative to the WT (SERT S404C/C109A [5]; S404C/C109A, ASP+ as substrate): ~70%
Km (SERT S404C/C109A [5]): 8.87 ± 0.59 µM
Vmax (SERT S404C/C109A [5]): 53.2 ± 3.8 AFU
Km (SERT Y107C/C109A [6]): 9.32 ± 0.48 µM
Vmax (SERT Y107C/C109A [6]): 59.9 ± 4.2 AFU
Km (WT-SERT): 8.52 ± 0.15 µM
Vmax (WT-SERT): 75.8 ± 5.3 AFU

effect of ligand on reactivity with MTSET (SERT Y107C/C109A [1]): little effect on the reactivity
effect of ligand on reactivity with MTSET (SERT S404C/C109A [2]): little effect on the reactivity
Structure (SMILES): N[C@@H](Cc1c[nH]c2ccccc12)C(=O)O [Trp, tryptophan]

Structure (SMILES): CN(C)CCCN1c2ccccc2CCc2ccccc21 [imipramine]
effect of ligand on reactivity with MTSET (SERT Y107C/C109A [1]; [7]): markedly increased the reactivity
effect of ligand on reactivity with MTSET (SERT S404C/C109A [2]; [8]): markedly increased the reactivity

Structure (SMILES): N#Cc1ccc2[nH]cc(CCCCN3CCN(c4ccc5oc(C(N)=O)cc5c4)CC3)c2c1 [vilazodone]
effect on Cys107 reactivity with MTSET (SERT Y107C/C109A [1]; intact cells expressing Y107C/C109A, 10 μM vilazodone): increased Cys107 reactivity
effect on Cys277 reactivity with MTSEA (SERT S277C/X5C [3]; digitonin-permeabilized cells expressing S277C/X5C, 10 μM vilazodone): decreased Cys277 reactivity
